Experimental data from patent US7138361B2, “Herbicidal heterocycles” (E. I. du Pont de Nemours and Company, priority 2000, dated 2006).

What was measured:
Assay type in all cases: in vivo
[1] = test system: Surinam grass (Brachiaria decumbens); test: Test B postemergence
Summary of the method: (§1)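 Ratings on a 0 to 100 visual scale (100 complete control) compare treated plants with controls 13 to 15 days after application. Treatments were pre- or postemergence sprays of compound in non-phytotoxic solvent with surfactant.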

[2] = test system: barnyardgrass (Echinochloa crus-galli); test: Test B postemergence
Summary of the method: as §1

[3] = test system: blackgrass (Alopecurus myosuroides); test: Test B postemergence
Summary of the method: as §1

[4] = test system: cocklebur (Xanthium strumarium); test: Test B postemergence
Summary of the method: as §1

[5] = test system: crabgrass (Digitaria sanguinalis); test: Test B postemergence; conditions: Rate 125 g/ha, scale 0 to 100, 0 no effect, 100 complete control
Summary of the method: as §1

[6] = test system: lambsquarters (Chenopodium album); test: Test B postemergence; conditions: Rate 125 g/ha, scale 0 to 100, 0 no effect, 100 complete control
Summary of the method: as §1

[7] = test system: morning glory (Ipomoea hederacea); test: Test B postemergence; conditions: Rate 125 g/ha, scale 0 to 100, 0 no effect, 100 complete control
Summary of the method: as §1

[8] = test system: pigweed (Amaranthus retroflexus); test: Test B postemergence; conditions: Rate 125 g/ha, scale 0 to 100, 0 no effect, 100 complete control
Summary of the method: as §1

wild oat (Avena fatua) = test: Test B postemergence; conditions: Rate 125 g/ha, scale 0 to 100, 0 no effect, 100 complete control
Summary of the method: as §1

[9] = test system: Surinam grass (Brachiaria decumbens); test: Test B preemergence
Summary of the method: as §1

[10] = test system: barnyardgrass (Echinochloa crus-galli); test: Test B preemergence
Summary of the method: as §1

[11] = test system: cocklebur (Xanthium strumarium); test: Test B preemergence
Summary of the method: as §1

corn (Zea mays) = test: Test B preemergence
Summary of the method: as §1

[12] = test system: crabgrass (Digitaria sanguinalis); test: Test B preemergence
Summary of the method: as §1

[13] = test system: giant foxtail (Setaria faberii); test: Test B preemergence
Summary of the method: as §1

[14] = test system: lambsquarters (Chenopodium album); test: Test B preemergence
Summary of the method: as §1

[15] = test system: morning glory (Ipomoea hederacea); test: Test B preemergence
Summary of the method: as §1

[16] = test system: pigweed (Amaranthus retroflexus); test: Test B preemergence
Summary of the method: as §1

rice (Oryza saliva) [17] = test: Test B preemergence
Summary of the method: as §1

[18] = test system: velvetleaf (Abutilon theophrasti); test: Test B preemergence
Summary of the method: as §1

[19] = test system: barnyardgrass (Echinochloa crus-galli); test: Test C flooded paddy test; conditions: for Barnyardgrass plant response rating: Flooded Paddy, scale 0 to 100, 0 no effect, 100 complete control; for Plant response rating, Barnyardgrass: flooded paddy test, scale 0 to 100 (0 no effect, 100 complete control)
Summary of the method: (§2)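 Each species was cultivated to 2 leaves in flooded paddy pots, then treated. After a greenhouse period of 12–14 days, the plants were scored visually relative to controls from 0 (no effect) to 100 (complete control).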

[20] = test system: duck salad (Heteranthera limosa); test: Test C flooded paddy test; conditions: for Ducksalad plant response rating: Flooded Paddy, scale 0 to 100, 0 no effect, 100 complete control; for Plant response rating, Ducksalad: flooded paddy test, scale 0 to 100 (0 no effect, 100 complete control)
Summary of the method: as §2

rice (Oryza saliva) [21] = test: Test C flooded paddy test; conditions: for Rice plant response rating: Flooded Paddy, scale 0 to 100, 0 no effect, 100 complete control; for Plant response rating, Rice: flooded paddy test, scale 0 to 100 (0 no effect, 100 complete control)
Summary of the method: as §2

[22] = test system: smallflower flatsedge (Cyperus difformis); test: Test C flooded paddy test; conditions: for Flatsedge plant response rating: Flooded Paddy, scale 0 to 100, 0 no effect, 100 complete control; for Plant response rating, Flatsedge: flooded paddy test, scale 0 to 100 (0 no effect, 100 complete control)
Summary of the method: as §2

Nightshade = test: Test C preemergence; conditions: Rate 500 g/ha, visual evaluation after 12 to 14 days
Sunflower = test: Test C preemergence; conditions: Rate 250 g/ha, scale 0 to 100, 0 no effect, 100 complete control
[23] = Rate 125 g/ha, scale 0 to 100, 0 no effect, 100 complete control
[24] = Rate 500 g/ha, scale 0 to 100, 0 is no effect, 100 is complete control, 13 to 15 days
[25] = Preemergence, Rate 500 g/ha, scale 0 to 100, 0 no effect, 100 complete control
[26] = preemergence, Rate 125 g/ha, scale of 0 to 100 where 0 is no effect and 100 is complete control, 13 to 15 days

In the case of `COc1cc(N2CCC(n3ccc(C(C)(C)C)n3)C2=O)ccc1Cl` (centres unmarked) [Compound 117], the “Plant response rating, Surinam grass” value [1, 23] is reported as 30, the “Plant response rating, Surinam grass” value [1, 24] is reported as 40 and the “Plant response rating, Barnyardgrass” value [2, 23] is reported as 40. The “Plant response rating, Barnyardgrass” value [2, 24] was 90, the “Plant response rating, Blackgrass” value [3, 23] was 0 and the “Plant response rating, Blackgrass” value [3, 24] was 0. The “Plant response rating, Cocklebur” value [4, 23] was 90, the “Plant response rating, Cocklebur” value [4, 24] was 100 and the “Plant response rating, Crabgrass” value [5] was 30. For the same compound, the “Plant response rating, Lambsquarters” value [6] was 90, the “Plant response rating, Morningglory” value [7] was 70 and the “Plant response rating, Pigweed” value [8] was 80. The “Plant response rating, Wild Oat” value (wild oat (Avena fatua)) was 40, the “Plant response rating, Surinam grass” value [9, 25] was 100 and the “Plant response rating, Surinam grass” value [9, 26] was 100. For the same compound, the “Plant response rating, Barnyardgrass” value [10, 25] was 100, the “Plant response rating, Barnyardgrass” value [10, 26] was 100 and the “Plant response rating, Cocklebur” value [11, 25] was 100. The “Plant response rating, Cocklebur” value [11, 26] was 70, the “Plant response rating, Corn” value (corn (Zea mays); [25]) was 30 and the “Plant response rating, Corn” value (corn (Zea mays); [26]) was 20. For the same compound, the “Plant response rating, Crabgrass” value [12, 25] was 100, the “Plant response rating, Crabgrass” value [12, 26] was 100 and the “Plant response rating, Foxtail, Giant” value [13, 25] was 100. For the same compound, the “Plant response rating, Foxtail, Giant” value [13, 26] was 100, the “Plant response rating, Lambsquarters” value [14, 25] was 100 and the “Plant response rating, Lambsquarters” value [14, 26] was 100. The “Plant response rating, Morningglory” value [15, 25] was 100, the “Plant response rating, Morningglory” value [15, 26] was 80 and the “Plant response rating, Pigweed” value [16, 25] was 100. The “Plant response rating, Pigweed” value [16, 26] was 100, the “Plant response rating, Rice” value (rice (Oryza saliva) [17]; [25]) was 70 and the “Plant response rating, Rice” value (rice (Oryza saliva) [17]; [26]) was 0. The “Plant response rating, Velvetleaf” value [18, 25] was 100, the “Plant response rating, Velvetleaf” value [18, 26] was 40 and the “Barnyardgrass plant response rating” value ([19]; Rate 250 g/ha) was 90. For the same compound, the “Barnyardgrass plant response rating” value ([19]; Rate 500 g/ha) was 90, the “Plant response rating, Barnyardgrass” value ([19]; Rate 62 g/ha) was 40 and the “Plant response rating, Barnyardgrass” value ([19]; Rate 125 g/ha) was 80. The “Ducksalad plant response rating” value ([20]; Rate 250 g/ha) was 100, the “Ducksalad plant response rating” value ([20]; Rate 500 g/ha) was 100 and the “Plant response rating, Ducksalad” value ([20]; Rate 62 g/ha) was 0. For the same compound, the “Plant response rating, Ducksalad” value ([20]; Rate 125 g/ha) was 100, the “Rice plant response rating” value (rice (Oryza saliva) [21]; Rate 500 g/ha) was 30 and the “Plant response rating, Rice” value (rice (Oryza saliva) [21]; Rate 62 g/ha) was 20. The “Plant response rating, Rice” value (rice (Oryza saliva) [21]; Rate 125 g/ha) was 30, the “Flatsedge plant response rating” value ([22]; Rate 250 g/ha) was 100 and the “Flatsedge plant response rating” value ([22]; Rate 500 g/ha) was 100. The “Plant response rating, Flatsedge” value ([22]; Rate 62 g/ha) was 100, the “Plant response rating, Flatsedge” value ([22]; Rate 125 g/ha) was 100 and the “Plant response rating (0 to 100), Nightshade” value (Nightshade) was 100. For the same compound, the “Plant response rating, Sunflower” value (Sunflower) was 60.

In the case of `CCC(CC)c1ccn(C2CCN(c3ccc(Cl)c(OC)c3)C2=O)n1` (centres unmarked) [Compound 118], the “Plant response rating, Surinam grass” value [1, 23] is reported as 30, the “Plant response rating, Surinam grass” value [1, 24] is reported as 40 and the “Plant response rating, Barnyardgrass” value [2, 23] is reported as 0. For the same compound, the “Plant response rating, Barnyardgrass” value [2, 24] was 90, the “Plant response rating, Blackgrass” value [3, 23] was 0 and the “Plant response rating, Blackgrass” value [3, 24] was 0. The “Plant response rating, Cocklebur” value [4, 23] was 60, the “Plant response rating, Cocklebur” value [4, 24] was 100 and the “Plant response rating, Crabgrass” value [5] was 40. The “Plant response rating, Lambsquarters” value [6] was 90, the “Plant response rating, Morningglory” value [7] was 40 and the “Plant response rating, Pigweed” value [8] was 70. The “Plant response rating, Wild Oat” value (wild oat (Avena fatua)) was 30, the “Plant response rating, Surinam grass” value [9, 25] was 90 and the “Plant response rating, Surinam grass” value [9, 26] was 0. The “Plant response rating, Barnyardgrass” value [10, 25] was 100, the “Plant response rating, Barnyardgrass” value [10, 26] was 100 and the “Plant response rating, Cocklebur” value [11, 25] was 0. The “Plant response rating, Cocklebur” value [11, 26] was 0, the “Plant response rating, Corn” value (corn (Zea mays); [25]) was 30 and the “Plant response rating, Corn” value (corn (Zea mays); [26]) was 30. For the same compound, the “Plant response rating, Crabgrass” value [12, 25] was 100, the “Plant response rating, Crabgrass” value [12, 26] was 100 and the “Plant response rating, Foxtail, Giant” value [13, 25] was 100. For the same compound, the “Plant response rating, Foxtail, Giant” value [13, 26] was 40, the “Plant response rating, Lambsquarters” value [14, 25] was 100 and the “Plant response rating, Lambsquarters” value [14, 26] was 100. The “Plant response rating, Morningglory” value [15, 25] was 100, the “Plant response rating, Morningglory” value [15, 26] was 40 and the “Plant response rating, Pigweed” value [16, 25] was 100. The “Plant response rating, Pigweed” value [16, 26] was 100, the “Plant response rating, Rice” value (rice (Oryza saliva) [17]; [25]) was 0 and the “Plant response rating, Rice” value (rice (Oryza saliva) [17]; [26]) was 0. The “Plant response rating, Velvetleaf” value [18, 25] was 90, the “Plant response rating, Velvetleaf” value [18, 26] was 20 and the “Barnyardgrass plant response rating” value ([19]; Rate 250 g/ha) was 100. The “Barnyardgrass plant response rating” value ([19]; Rate 500 g/ha) was 100, the “Plant response rating, Barnyardgrass” value ([19]; Rate 62 g/ha) was 50 and the “Plant response rating, Barnyardgrass” value ([19]; Rate 125 g/ha) was 60. The “Ducksalad plant response rating” value ([20]; Rate 250 g/ha) was 100, the “Ducksalad plant response rating” value ([20]; Rate 500 g/ha) was 100 and the “Plant response rating, Ducksalad” value ([20]; Rate 125 g/ha) was 60. The “Rice plant response rating” value (rice (Oryza saliva) [21]; Rate 250 g/ha) was 20, the “Rice plant response rating” value (rice (Oryza saliva) [21]; Rate 500 g/ha) was 30 and the “Plant response rating, Rice” value (rice (Oryza saliva) [21]; Rate 62 g/ha) was 0. For the same compound, the “Plant response rating, Rice” value (rice (Oryza saliva) [21]; Rate 125 g/ha) was 0, the “Flatsedge plant response rating” value ([22]; Rate 250 g/ha) was 100 and the “Flatsedge plant response rating” value ([22]; Rate 500 g/ha) was 100. The “Plant response rating, Flatsedge” value ([22]; Rate 62 g/ha) was 0, the “Plant response rating, Flatsedge” value ([22]; Rate 125 g/ha) was 100 and the “Plant response rating (0 to 100), Nightshade” value (Nightshade) was 100. For the same compound, the “Plant response rating, Sunflower” value (Sunflower) was 60.
